In patent US20190135818A1 (SHANGHAI INSTITUTE OF MATERIA MEDICA, CHINESE ACADEMY OF …, priority 2016, published 2019):
pIC50: −log10 of the molar value.

Legend:
[1] = target: T1, FGFR1 (Homo sapiens, UniProt P11362); test: FGFR kinase inhibitory activity experiment (ELISA, Poly(Glu,Tyr)4:1 substrate); assay type: biochemical; settings: kinase recombinant protein FGFR1, ATP 5 μM
T1 construct: The reaction was initiated by addition of FGFR kinase domain recombinant protein diluted with 49 μL of reaction buffer; purchased Millipore 14-482
T1 sequence (P11362 478-767 limits assumed): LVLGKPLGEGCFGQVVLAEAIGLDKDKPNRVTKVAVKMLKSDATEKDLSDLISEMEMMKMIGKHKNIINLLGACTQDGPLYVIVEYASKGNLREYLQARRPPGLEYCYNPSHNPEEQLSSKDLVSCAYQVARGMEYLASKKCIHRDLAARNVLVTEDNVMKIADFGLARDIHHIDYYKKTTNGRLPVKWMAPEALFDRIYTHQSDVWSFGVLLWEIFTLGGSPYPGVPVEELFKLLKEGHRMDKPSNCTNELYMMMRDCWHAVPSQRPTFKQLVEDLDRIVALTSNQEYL
Procedure: Precision electronic balance (Sartotius, Cat. No. BP210D), adjustable wavelength microplate reader (Molecular Device, Cat. No. SpectraMax 190).
After the liquid was removed from the wells, the plate was washed for three times with 200 μL/well of T-PBS (PBS containing 0.1% Tween-20) for 5 minutes each time. The enzyme plate was dried at 37° C. in a dryer for 1-2 hours.
50 μL ATP solution diluted with reaction buffer (50 mM HEPES pH 7.4, 50 mM MgCl2, 0.5 mM MnCl2, 0.2 mM Na3VO4, 1 mM DTT) was added into each well at a 5 μM final concentration. The compounds were diluted to appropriate concentration in DMSO, 1 μL/well or containing the corresponding concentrations of DMSO (negative control wells). The reaction was initiated by addition of FGFR kinase domain recombinant protein diluted with 49 μL of reaction buffer. Two control wells without enzyme were set in each experiment. The plate was placed on a shaker (100 rpm) at 37° C. for 1 hour. The plate was washed with T-PBS for three times. 100 μL/well of primary antibody PY99 dilution was added, and incubated at 37° C. for 0.5 hour on a shaker (100 rpm). The plate was washed with T-PBS for three times. 100 μL/well of horseradish peroxidase-labeled secondary anti-goat anti-mouse IgG dilution was added and incubated at 37° C. for 0.5 hour on a shaker (100 rpm). The plate was washed with T-PBS for three times. 100 μL/well of 2 mg/mL OPD coloration solution (diluted with 0.1 M citric acid-sodium citrate buffer containing 0.03% H2O2 (pH=5.4)) was added, and incubated in darkness for 1-10 minutes at 25° C. The reaction was quenched with 50 μL/well 2M H2SO4, and read at 490 nm using a tunable microplate microplate reader SPECTRA MAX 190.
The inhibition ratio of the sample was determined by the following formula: […]
(§1) The IC50 values were obtained by four-parameter regression analysis using the software supplied with the microplate reader.

[2] = test system: Human acute myeloid leukemia cell line KG1; test: FGFR-dependent tumor cell proliferation inhibition activity test (CCK-8, 72 h); assay type: cell-based
Source text: Human acute myeloid leukemia cell line KG1 (FGFR1 fusion protein expressed in the cytoplasm, FGFR1-dependent tumor cell line) (ATCC, Cat. No. CCL-246), cell culture medium RPMI-1640 (Corning Cellgro, No. 10-040-CVR), fetal bovine serum (Life
Technologies, Cat. No. 10099-141) was purchased from the company; CCK-8 cell counting kit (DOJINDO, Cat. No. FK808). Adjustable wavelength microplate reader (Molecular Device, Cat. No. SpectraMax 190).
The inhibitory effect of the compound on KG1 proliferation was detected by CCK-8 Cell Counting Kit (Dojindo): Logarithmic growth phase cells were seeded in 96-well culture plate in appropriate density, 90 ul for each well. After cultured overnight, different concentrations of drugs were added and incubated for 72 h, while solvent control well was set (negative control). After the cells were treated by the compound for 72 h, 10 μL of CCK-8 reagent was added to each well. After incubated for 2-4 hours in a 37 □ incubator, the plate was read with SpectraMax 190 microplate reader at wavelength 450 nm.
The inhibition rate of compounds against cell proliferation is calculated by the following formula:
Inhibition rate (%)=(OD negative control well-OD administration well)/OD negative control well×100%.
as §1

Structure (SMILES) | pIC50 [1] | pIC50 ([2]; Homo sapiens, KG-1, KG1 cells) | pIC50 ([2]; KG1 cells)
Cc1ccc2oc(-c3c4c(N)n[nH]c(=O)c4nn3-c3ccc(N(C)CCN(C)C)cc3)c(C)c2c1 [Compound A11, 4-amino-2-(4-{[2-(dimethylamino)ethyl] (methyl)amino}phenyl)-3-(3,5-dimethyl-1-benzofuran-2-yl)-2,6-dihydro-7H-pyrazolo[3,4-d]pyridazin-7-one] | > 7.00 | 6.00 to 7.00 | 
Cc1ccc2oc(-c3c4c(N)n[nH]c(=O)c4nn3C3CCN(CCN(C)C)CC3)c(C)c2c1 [Compound A36, 4-amino-2-{1-[2-(dimethylamino)ethyl]piperidin-4-yl}-3-(3,5-dimethylbenzofuran-2-yl)-2H-pyrazolo[3,4-d]pyridazin-7(6H)-one] | > 7.00 |  | 
Cc1ccc2oc(-c3c4c(N)n[nH]c(=O)c4nn3C3CCN(C(=O)/C=C/CN(C)C4CC4)CC3)c(C)c2c1 [Compound A34, 4-amino-2-(1-{(2E)-4-[cyclopropyl (methyl)amino]but-2-enoyl}piperidin-4-yl)-3-(3,5-dimethyl-1-benzofuran-2-yl)-2,6-dihydro-7H-pyrazolo[3,4-d] pyridazin-7-one] | > 7.00 |  | 
CCN1CCC(n2nc3c(=O)[nH]nc(N)c3c2-c2oc3ccc(Cl)cc3c2C)CC1 [Compound A23, 4-amino-3-(5-chloro-3-methyl-1-benzo-furan-2-yl)-2-(1-ethylpiperidin-4-yl)-2,6-dihydro-7H-pyrazolo[3,4-d]pyridazin-7-one] | > 7.00 | ≥ 7.00 | 
Cc1ccc2oc(-c3c4c(N)n[nH]c(=O)c4nn3C3CCN(C(=O)/C=C/CN4CCC4)CC3)c(C)c2c1 [Compound A31, 4-amino-2-{1-[(2E)-4-(azetidin-1-yl)but-2-enoyl]piperidin-4-yl}-3-(3,5-dimethyl-1-benzofuran-2-yl)-2,6-dihydro-7H-pyrazolo[3,4-d]pyridazin-7-one] | > 7.00 |  | 
CCN1CCC(n2nc3c(=O)[nH]nc(N)c3c2-c2oc3ccc(C)cc3c2C)CC1 [Compound A24, 4-amino-3-(3,5-dimethyl-1-benzofuran-2-yl)-2-(1-ethylpiperidin-4-yl)-2,6-dihy-dro-7H-pyrazolo[3,4-d]pyridazin-7-one] | > 7.00 | ≥ 7.00 | 
Cc1c(-c2c3c(N)n[nH]c(=O)c3nn2-c2ccccc2)oc2cc(F)ccc12 [Compound A8, 4-amino-3-(6-fluoro-3-methyl-1-benzo-furan-2-yl)-2-phenyl-2,6-dihydro-7H-pyrazolo[3,4-d]pyridazin-7-one] | > 7.00 | 6.00 to 7.00 | 
Cc1ccc2oc(-c3c4c(N)n[nH]c(=O)c4nn3-c3ccccc3)c(C)c2c1 [Compound A4, 4-amino-3-(3,5-dimethyl-1-benzofuran-2-yl)-2-phenyl-2,6-dihydro-7H-pyrazolo [3,4-d]pyridazine-7-one] |  | 6.00 to 7.00 | 
CCC(=O)N1CCC(n2nc3c(=O)[nH]nc(N)c3c2-c2oc3ccc(Cl)cc3c2C)CC1 [Compound A41] | > 7.00 | 6.00 to 7.00 | 
C=CC(=O)NC1CCC(n2nc3c(=O)[nH]nc(N)c3c2-c2oc3ccc(C)cc3c2C)CC1 (stereo not drawn) [Compound A33, N-{4-[4-amino-3-(3,5-dimethyl-1-benzo-furan-2-yl)-7-carbonyl-6,7-dihydro-2H-pyrazolo[3,4-d]pyridazin-2-yl]cyclohexyl}prop-2-enamide] | > 7.00 | ≥ 7.00 | 
C=CC(=O)N1CCCC(n2nc3c(=O)[nH]nc(N)c3c2-c2oc3ccc(C)cc3c2C)C1 (stereo not drawn) [Compound A40, 2-(1-acryloylpiperidin-3-yl)-4-amino-3-(3,5-dimethyl-1-benzofuran-2-yl)-2,6-dihy-dro-7H-pyrazolo[3,4-d]pyridazin-7-one] | > 7.00 | ≥ 7.00 | 
C=CC(=O)N1CCC(Cn2nc3c(=O)[nH]nc(N)c3c2-c2oc3ccc(C)cc3c2C)CC1 [Compound A38, 2-[(1-acryloylpiperidin-4-yl)methyl]-4-amino-3-(3,5-dimethyl-1-benzofuran-2-yl)-2,6-dihydro-7H-pyrazolo[3,4-d]pyridazin-7-one] | > 7.00 |  | 
C=CC(=O)Nc1ccc(-n2nc3c(=O)[nH]nc(N)c3c2-c2oc3ccc(C)cc3c2C)cc1N(C)CCN(C)C [Compound A32, N-(4-[4-amino-3-(3,5-dimethyl-1-benzo-furan-2-yl)-7-carbonyl-6,7-dihydro-2H-pyrazolo[3,4-d]pyridazin-2-yl]-2-{[(dimethylamino)ethyl](methyl)amino}phenyl)prop-2-enamide] | > 7.00 |  | 

Further lines, results first:

pIC50 [1] | pIC50 ([2]; Homo sapiens, KG-1, KG1 cells) | pIC50 ([2]; KG1 cells) | Structure (SMILES)
> 7.00 | ≥ 7.00 |  | C=CC(=O)N1CCC(n2nc3c(=O)[nH]nc(N)c3c2-c2oc3cc(Cl)ccc3c2C)CC1 [Compound A84, 2-(1-acryloylpiperidin-4-yl)-4-amino-3-(6-chloro-3-methylbenzofuran-2-yl)-2,6-dihydro-7H-pyrazolo[3,4-d]pyridazine-7-one]
> 7.00 |  |  | Cc1c(-c2c3c(N)n[nH]c(=O)c3nn2C2CCN(C(=O)/C=C/CNC3CC3)CC2)oc2ccc(Cl)cc12 [Compound A56, 4-amino-3-(5-chloro-3-methyl-1-benzo-furan-2-yl)-2-{1-[(2E)-4-(cyclopropyl-amino)but-2-enoyl]piperidin-4-yl}-2,6-dihydro-7H-pyrazolo[3,4-d]pyridazin-7-one]
> 7.00 |  | ≥ 7.00 | C=CC(=O)NC1CCC(n2nc3c(=O)[nH]nc(N)c3c2-c2oc3ccc(C)cc3c2C)CC1 (stereo not drawn) [Compound A88, N-(4-(4-amino-3-(3,5-dimethylbenzo-furan-2-yl)-7-carbonyl-6,7-dihydro-2H-pyrazolo[3,4-d]pyridazin-2-yl)cyclohexyl)acryloylamide]
> 7.00 | ≥ 7.00 |  | C=C(F)C(=O)N1CCC(n2nc3c(=O)[nH]nc(N)c3c2-c2oc3ccc(C)cc3c2C)C1 (stereo not drawn) [Compound A52, 4-amino-3-(3,5-dimethyl-1-benzofuran-2-yl)-2-[1-(2-fluoroacryloyl)pyrrolidin-3-yl]-2,6-dihydro-7H-pyrazolo[3,4-d] pyridazin-7-one]
> 7.00 | ≥ 7.00 |  | C=CC(=O)N1CCCC(n2nc3c(=O)[nH]nc(N)c3c2-c2oc3ccc(Cl)cc3c2C)C1 (stereo not drawn) [Compound A87, 2-(1-acryloylpiperidin-3-yl)-4-amino-3-(5-chloro-3-methylbenzofuran-2-yl)-2,6-dihydro-7H-pyrazolo[3,4-d]pyridazine-7-one]
> 7.00 | ≥ 7.00 |  | C=C(C#N)C(=O)N1CCC(n2nc3c(=O)[nH]nc(N)c3c2-c2oc3ccc(C)cc3c2C)CC1 [Compound A55, 2-({4-[4-amino-3-(3,5-dimethyl-1-benzo-furan-2-yl)-7-carbonyl-6,7-dihydro-2H-pyrazolo[3,4-d]pyridazin-2-yl]piperidin-1-yl}carbonyl)prop-2-enenitrile]
> 7.00 | ≥ 7.00 |  | C=CC(=O)N1CCC(n2nc3c(=O)[nH]nc(N)c3c2-c2oc3cc(C)ccc3c2C)CC1 [Compound A82, 2-(1-acryloylpiperidin-4-yl)-4-amino-3-(3,6-dimethylbenzofuran-2-yl)-2,6-dihy-dro-7H-pyrazole[3,4-d]pyridazin-7-one]
> 7.00 | ≥ 7.00 |  | C=CC(=O)N1CCC(n2nc3c(=O)[nH]nc(N)c3c2-c2oc3ccc(C)cc3c2CC)CC1 [Compound A85, 2-(1-acryloylpiperidin-4-yl)-4-amino-3-(3-ethyl-5-methylbenzofuran-2-yl)-2,6-dihydro-7H-pyrazolo[3,4-d]pyridazin-7-one]
> 7.00 |  |  | C=CC(=O)N1CC(Cn2nc3c(=O)[nH]nc(N)c3c2-c2oc3ccc(C)cc3c2C)C1 [Compound A45, 2-[(1-acryloylazetidin-3-yl)methyl]-4-amino-3-(3,5-dimethyl-1-benzofuran-2-yl)-2,6-dihydro-7H-pyrazolo[3,4-d] pyridazin-7-one]
